Data on ten molecules can be found in US20010000177A1, “Novel class of thiomorpholino substituted thiazoles” (priority 1999, published 2001).

What all share (type): cell-based
Experiment [1] relates to Candida and Cryptococcus strains (organism not given). The experiment is described as follows: Broth microdilution antifungal activity, Table II first MIC/MCC column pair. The following applies: first column pair of Table II; for MIC = Minimum inhibitory concentration (50% Inhibition): 48 hrs, 35° C., YNB broth pH 7.0; for MCC = Minimum cytolytic concentration: subculture on SDA plate. As for the experimental part:
(§1) Organisms: Three strains of Candida (Candida parpsilosis, Candida tropicalis, Candida albicans-ATCC 36082) as well as Cryptococcus neoformans were used for the initial testing. […] All clinical strains used in this study were blood culture isolates from the Clinical Microbiology Laboratory of Harbor-UCLA Medical Center, Torrance, Calif. The organisms were maintained on Sabourahd Dextrose Agar slants at 4° C. For experimentation, singlet suspensions of each organism were prepared by growing the yeast overnight at 27° C. on a rotating drum in yeast-nitrogen base broth (YNB) with amino acids (Difco, Detroit, Mich.), pH 7.0 with 0.05M morpholinepropanesulfonic acid (MOPS). The suspension was then centrifuged and washed twice with 0.85% NaCl. This was followed by sonication of the washed cell suspension for 4s (Branson Sonifier, model 350, Danbury, Conn.). The singlet blastospores were counted in a hemocytometer and adjusted to the desired concentration in 0.85% NaCl.
(§2) Antifungal Activity: The antifungal activity of the compounds and Fluconazole against the Candida and Cryptococcus strains were determined using a modification of a broth microdilution technique. Test compounds were diluted in DMSO to a 1.0 mg/ml ratio then diluted to 64 μg/ml in YNB broth, pH 7.0 with MOPS (Fluconazole was used as the control). This was to provide a working solution of each compound. Using a 96-well plate, wells 1 and 3 through 12 were prepared with YNB broth, […] dilutions of the compound solution were made in wells 2 through 11 (concentration ranges were 64 to 0.125 μg/ml). Well one served as a sterility control and blank for the spectrophotometric assays. Well twelve served as a growth control. The microtiter plates were inoculated with 10 ul in each of well 2 through 11 (final inoculum size was 10^4 organisms/ml). Inoculated plates were incubated for 48 hrs., at 35° C. The MIC values were determined spectrophotometrically by measuring the absorbance at 420 nm (Automatic Microplate Reader, DuPont Instruments, Wilmington, Del.) after agitation of the plates for 2 min with a vortex-mixer (Vorte-Genie 2 Mixer, Scientific Industries, Inc., Bolemia, N.Y.). […] With the turbidity assay this was defined as the lowest drug concentration at which turbidity in the well was <50% of the control (IC50) Minimal Cytolytic Concentrations (MCC) were determined by subculturing all wells from the 96-well plate onto a Sabourahd Dextrose Agar (SDA) plate and incubated for 1 to 2 days at 35° C. and the viability was checked.
A general note: In broth dilution the organism is exposed to a series of concentrations in liquid medium.

Experiment [2] has the same test system. The experiment is described as follows: Broth microdilution antifungal activity, Table II second MIC/MCC column pair. The following applies: second column pair of Table II; for MIC = Minimum inhibitory concentration (50% Inhibition): 48 hrs, 35° C., YNB broth pH 7.0; for MCC = Minimum cytolytic concentration: subculture on SDA plate. As for the experimental part: (§3) Organisms: Three strains of Candida (Candida parpsilosis, Candida tropicalis, Candida albicans-ATCC 36082) as well as Cryptococcus neoformans were used for the initial testing. Active compounds were then tested against fluconazole resistant Candida albicans, Candida krusei, Torulopsis glabrata, and Cryptococcus neoformans along with Sporothrix shenkii and Aspergillus flavus in the secondary round of testing. All clinical strains used in this study were blood culture isolates from the Clinical Microbiology Laboratory of Harbor-UCLA Medical Center, Torrance, Calif. The organisms were maintained on Sabourahd Dextrose Agar slants at 4° C. For experimentation, singlet suspensions of each organism were prepared by growing the yeast overnight at 27° C. on a rotating drum in yeast-nitrogen base broth (YNB) with amino acids (Difco, Detroit, Mich.), pH 7.0 with 0.05M morpholinepropanesulfonic acid (MOPS). The suspension was then centrifuged and washed twice with 0.85% NaCl. This was followed by sonication of the washed cell suspension for 4s (Branson Sonifier, model 350, Danbury, Conn.). The singlet blastospores were counted in a hemocytometer and adjusted to the desired concentration in 0.85% NaCl.
as §2

The test system is the same in experiment [3]. The experiment is described as follows: Broth microdilution antifungal activity, Table II third MIC/MCC column pair. The note with it: for MIC = Minimum inhibitory concentration (50% Inhibition): 48 hrs, 35° C., YNB broth pH 7.0; for MCC = Minimum cytolytic concentration: subculture on SDA plate. As for the experimental part:
as §3, §2

Experiment [4] shares this test system. Briefly: Broth microdilution antifungal activity, Table II fourth MIC/MCC column pair. The following applies: fourth column pair of Table II; for MIC = Minimum inhibitory concentration (50% Inhibition): 48 hrs, 35° C., YNB broth pH 7.0; for MCC = Minimum cytolytic concentration: subculture on SDA plate. As for the experimental part:
as §1, §2

The structures appear in SMILES notation. In brackets after ≈: the same amount, converted by molar mass. Marks after values point to notes of the source that are not given here.

On to `C=CCN(C)Cc1ccc(-c2csc(-c3ccc([N+](=O)[O-])cc3)n2)cc1` [Example 1h, 2-(4′-nitrophenyl)-4-[4″-(N-methyl-N-allylaminomethyl)phenyl]thiazole], for which the “MIC = Minimum inhibitory concentration (50% Inhibition)” value in experiment [1] was 0.5^c μg/ml; in experiment [2] it was 0.25 µg/mL (≈ 0.684 µM); in experiment [3], 0.125 µg/mL (≈ 0.342 µM); in experiment [4], 0.5 µg/mL (≈ 1.37 µM). The “MCC = Minimum cytolytic concentration” value in experiment [1] worked out at 2 µg/mL; in experiment [2], 1 µg/mL; in experiment [3], 0.5 µg/mL; in experiment [4] it was 2 µg/mL.
Take `CN(C)CCNCc1ccc(-c2csc(-c3ccc(Cl)cc3)n2)cc1` [Example 1jj, 2-(4′-chlorophenyl)-4-[4″-(N-(2-dimethylaminoethyl)aminomethyl)phenyl]thiazole]: the “MIC = Minimum inhibitory concentration (50% Inhibition)” value in experiment [1] was 8 µg/mL (≈ 21.5 µM); in experiment [2], 4 µg/mL (≈ 10.8 µM); in experiment [3], 4 µg/mL (≈ 10.8 µM); in experiment [4], 8 µg/mL (≈ 21.5 µM). Moreover, the “MCC = Minimum cytolytic concentration” value in experiment [1] was found to be 8 µg/mL; in experiment [2], 4 µg/mL; in experiment [3], 4 µg/mL; in experiment [4], 8 µg/mL.
As to `C=CCN(C)Cc1ccc(-c2csc(-c3cccc([N+](=O)[O-])c3)n2)cc1` [Example 1k, 2-(3′-nitrophenyl)-4-[4″-(N-methyl-N-allylaminomethyl)phenyl]thiazole], the “MIC = Minimum inhibitory concentration (50% Inhibition)” value was determined as 0.5 µg/mL (≈ 1.37 µM) in experiment [1], 0.25 µg/mL (≈ 0.684 µM) in experiment [2], 0.25 µg/mL (≈ 0.684 µM) in experiment [3] and 0.25 µg/mL (≈ 0.684 µM) in experiment [4]. Moreover, the “MCC = Minimum cytolytic concentration” value came out at 1 µg/mL in experiment [1], 0.5 µg/mL in experiment [2], 0.25 µg/mL in experiment [3] and 0.5 µg/mL in experiment [4].
For `C=CCN(C)Cc1ccc(-c2csc(-c3ccc(OC)c([N+](=O)[O-])c3)n2)cc1` [Example 1kk, 2-(4′-methoxy-3′-nitrophenyl)-4-[4″-(N-methyl-N-allylamino-methyl)phenyl]thiazole], the “MIC = Minimum inhibitory concentration (50% Inhibition)” value in experiment [1] is 1 µg/mL (≈ 2.53 µM); in experiment [2], 0.25 µg/mL (≈ 0.632 µM); in experiment [3], 1 µg/mL (≈ 2.53 µM); in experiment [4] it was 0.5 µg/mL (≈ 1.26 µM). Moreover, the “MCC = Minimum cytolytic concentration” value in experiment [1] is 2 µg/mL; in experiment [2] it was 1 µg/mL; in experiment [3], 2 µg/mL; in experiment [4], 2 µg/mL.
In the case of `COc1ccc(-c2nc(-c3ccc(CN(C)CCO)cc3)cs2)cc1[N+](=O)[O-]` [Example 1ll, 2-(4′-methoxy-3′-nitrophenyl)-4-[4″-(N-methyl-N-(2-hydroxy-ethyl)amino-methyl)phenyl]thiazole], the “MIC = Minimum inhibitory concentration (50% Inhibition)” value in experiment [1] is 8 µg/mL (≈ 20 µM); in experiment [2] it was 2 µg/mL (≈ 5.01 µM); in experiment [3], 4 µg/mL (≈ 10 µM); in experiment [4] it was 2 µg/mL (≈ 5.01 µM). The “MCC = Minimum cytolytic concentration” value in experiment [1] stood at 8 µg/mL; in experiment [2], 2 µg/mL; in experiment [3], 4 µg/mL; in experiment [4] it was 8 µg/mL.
As to `C=CCNCc1ccc(-c2csc(-c3ccc(F)cc3)n2)cc1` [Example 1n, 2-(4′-fluorophenyl)-4-[4″-(N-allylaminomethyl)phenyl]thiazole], the “MIC = Minimum inhibitory concentration (50% Inhibition)” value in experiment [1] is 8 µg/mL (≈ 24.7 µM); in experiment [2], 4 µg/mL (≈ 12.3 µM); in experiment [3], 8 µg/mL (≈ 24.7 µM); in experiment [4] it was 8 µg/mL (≈ 24.7 µM). In addition, the “MCC = Minimum cytolytic concentration” value in experiment [1] came to 16 µg/mL; in experiment [2] it was 8 µg/mL; in experiment [3], 16 µg/mL; in experiment [4], 8 µg/mL.
With `CCCN(C)Cc1ccc(-c2csc(-c3ccc([N+](=O)[O-])cc3)n2)cc1` [Example 1o, 2-(4′-nitrophenyl)-4-[4″-(N-methyl-N-propylaminomethyl)phenyl]thiazole], the “MIC = Minimum inhibitory concentration (50% Inhibition)” value in experiment [1] was determined as 1 µg/mL (≈ 2.72 µM); in experiment [2] it was 1 µg/mL (≈ 2.72 µM); in experiment [3] it was 2 µg/mL (≈ 5.44 µM); in experiment [4], 0.125 µg/mL (≈ 0.34 µM). Besides, the “MCC = Minimum cytolytic concentration” value came to 4 µg/mL in experiment [1], 4 µg/mL in experiment [2], 32 µg/mL in experiment [3] and 2 µg/mL in experiment [4].
On to `CN(C)CCSCc1ccc(-c2csc(-c3ccc(Cl)cc3)n2)cc1` [Example 1rr, 2-(4′-chlorophenyl)-4-[4″-[(2-dimethylaminoethyl-thio)methyl]phenyl]thiazole], for which the “MIC = Minimum inhibitory concentration (50% Inhibition)” value in experiment [1], in experiment [2], in experiment [3] and in experiment [4] was 4 µg/mL (≈ 10.3 µM) in each case. The “MCC = Minimum cytolytic concentration” value in experiment [1], in experiment [2], in experiment [3] and in experiment [4] was 8 µg/mL throughout.
Take `CNCCN(C)Cc1ccc(-c2csc(-c3ccc(Cl)cc3)n2)cc1` [Example 1tt, 2-(4′-chlorophenyl)-4-[4″-(N-methyl-N-(2-N-methylaminoethyl)-amino-methyl)phenyl]thiazole]: the “MIC = Minimum inhibitory concentration (50% Inhibition)” value was 4 µg/mL (≈ 10.8 µM) in experiment [1], 4 µg/mL (≈ 10.8 µM) in experiment [2], 2 µg/mL (≈ 5.38 µM) in experiment [3] and 2 µg/mL (≈ 5.38 µM) in experiment [4]. The “MCC = Minimum cytolytic concentration” value was 16 µg/mL in experiment [1], 16 µg/mL in experiment [2], 16 µg/mL in experiment [3] and 4 µg/mL in experiment [4].
As to `CN(C)CCN(C)Cc1ccc(-c2csc(-c3ccc(Cl)cc3)n2)cc1` [Example 1u, 2-(4′-chlorophenyl)-4-[4″-(N-methyl-N-(2-dimethylaminoethyl)aminomethyl)-phenyl]thiazole], the “MIC = Minimum inhibitory concentration (50% Inhibition)” value in experiment [1] worked out at 8 µg/mL (≈ 20.7 µM); in experiment [2], 4 µg/mL (≈ 10.4 µM); in experiment [3], 4 µg/mL (≈ 10.4 µM); in experiment [4], 4 µg/mL (≈ 10.4 µM). Moreover, the “MCC = Minimum cytolytic concentration” value in experiment [1] came to 8 µg/mL; in experiment [2], 4 µg/mL; in experiment [3], 4 µg/mL; in experiment [4], 4 µg/mL.
